Earlier results on four compounds are cited in patent US20110256545A1, “mRNA expression-based prognostic gene signature for non-small cell lung cancer” (priority 2010, published 2011).

This data set has as its system NCI-60 cell lines. The following applies: the value is the cell line; for Resistant lung cancer cell lines: NCI-60 lung cancer (LC) cell lines classed as resistant to the agent; for Sensitive lung cancer cell lines: NCI-60 lung cancer (LC) cell lines classed as sensitive to the agent.

Entries after “also recorded” stand apart in the source; their conditions may differ.

As for `COc1cc([C@@H]2c3cc4c(cc3[C@@H](O[C@@H]3O[C@@H]5CO[C@@H](C)O[C@H]5[C@H](O)[C@H]3O)[C@H]3COC(=O)[C@H]23)OCO4)cc(OC)c1O` [Etoposide], the “Resistant lung cancer cell lines” value was “LC: EKVX” and the “Sensitive lung cancer cell lines” value is “LC: HOP_62; also recorded: LC: NIC_H460”.
`N.N.O=C([O-])C1(C(=O)[O-])CCC1.[Pt+2]` [Carboplatin]: the “Resistant lung cancer cell lines” value was “LC: EKVX” and the “Sensitive lung cancer cell lines” value was “LC: NCI_H460; also recorded: LC: NCI_H522”.
As for `N.N.[Cl][Pt][Cl]` [Cisplatin], the “Resistant lung cancer cell lines” value is on record as “LC: NCI_H226; also recorded: LC: EKVX” and the “Sensitive lung cancer cell lines” value is “LC: HOP_62; also recorded: LC: NCI_H460”.
For `CC(=O)O[C@H]1C(=O)[C@@]2(C)[C@H]([C@H](OC(=O)c3ccccc3)[C@]3(O)C[C@H](OC(=O)[C@H](O)[C@@H](NC(=O)c4ccccc4)c4ccccc4)C(C)=C1C3(C)C)[C@]1(OC(C)=O)CO[C@@H]1C[C@@H]2O` [Paclitaxel], the “Resistant lung cancer cell lines” value is given as “LC: HOP_92; also recorded: LC_EKVX” and the “Sensitive lung cancer cell lines” value is recorded as “LC: NCI_H460; also recorded: LC: NCI_H522”.
